Assay results taken from ChEMBL document CHEMBL1132094, “Human telomerase inhibition by substituted acridine derivatives” (Bioorg Med Chem Lett, 1999).
Calls of active or inactive are those of the source. The calls are words filed in the database; no cut-off is given here.

Tests used:
[1] = target: DNA polymerase I, thermostable (Thermus aquaticus) (UniProt P19821); assay: Ability to inhibit Taq polymerase in vitro at a concentration of 20 uM; NI means No inhibition
[2] = target: DNA polymerase I, thermostable (Thermus aquaticus) (UniProt P19821); assay: Ability to inhibit Taq polymerase in vitro at a concentration of 50 uM; NI means No inhibition
[3] = target: DNA polymerase I, thermostable (Thermus aquaticus) (UniProt P19821); assay: Ability to inhibit Taq polymerase in vitro at a concentration of 10 uM; NI means No inhibition
A2780 = assay: In vitro cytotoxicity against human ovarian carcinoma cell line A2780 using sulforhodamine B (SRB) assay; assay type: functional, cell-based
CH1 = assay: In vitro cytotoxicity against human ovarian carcinoma cell line CH1 using sulforhodamine B (SRB) assay; assay type: functional, cell-based
SK-OV-3 = assay: In vitro cytotoxicity against human ovarian carcinoma cell line SKOV-3 using sulforhodamine B (SRB) assay; assay type: functional, cell-based
[4] = target: Telomerase reverse transcriptase (Homo sapiens, UniProt O14746); assay: Ability to inhibit human telomerase in a modified cell-free TRAP assay using extracts from A2780 cell line
Chain of Telomerase reverse transcriptase (O14746 whole entry): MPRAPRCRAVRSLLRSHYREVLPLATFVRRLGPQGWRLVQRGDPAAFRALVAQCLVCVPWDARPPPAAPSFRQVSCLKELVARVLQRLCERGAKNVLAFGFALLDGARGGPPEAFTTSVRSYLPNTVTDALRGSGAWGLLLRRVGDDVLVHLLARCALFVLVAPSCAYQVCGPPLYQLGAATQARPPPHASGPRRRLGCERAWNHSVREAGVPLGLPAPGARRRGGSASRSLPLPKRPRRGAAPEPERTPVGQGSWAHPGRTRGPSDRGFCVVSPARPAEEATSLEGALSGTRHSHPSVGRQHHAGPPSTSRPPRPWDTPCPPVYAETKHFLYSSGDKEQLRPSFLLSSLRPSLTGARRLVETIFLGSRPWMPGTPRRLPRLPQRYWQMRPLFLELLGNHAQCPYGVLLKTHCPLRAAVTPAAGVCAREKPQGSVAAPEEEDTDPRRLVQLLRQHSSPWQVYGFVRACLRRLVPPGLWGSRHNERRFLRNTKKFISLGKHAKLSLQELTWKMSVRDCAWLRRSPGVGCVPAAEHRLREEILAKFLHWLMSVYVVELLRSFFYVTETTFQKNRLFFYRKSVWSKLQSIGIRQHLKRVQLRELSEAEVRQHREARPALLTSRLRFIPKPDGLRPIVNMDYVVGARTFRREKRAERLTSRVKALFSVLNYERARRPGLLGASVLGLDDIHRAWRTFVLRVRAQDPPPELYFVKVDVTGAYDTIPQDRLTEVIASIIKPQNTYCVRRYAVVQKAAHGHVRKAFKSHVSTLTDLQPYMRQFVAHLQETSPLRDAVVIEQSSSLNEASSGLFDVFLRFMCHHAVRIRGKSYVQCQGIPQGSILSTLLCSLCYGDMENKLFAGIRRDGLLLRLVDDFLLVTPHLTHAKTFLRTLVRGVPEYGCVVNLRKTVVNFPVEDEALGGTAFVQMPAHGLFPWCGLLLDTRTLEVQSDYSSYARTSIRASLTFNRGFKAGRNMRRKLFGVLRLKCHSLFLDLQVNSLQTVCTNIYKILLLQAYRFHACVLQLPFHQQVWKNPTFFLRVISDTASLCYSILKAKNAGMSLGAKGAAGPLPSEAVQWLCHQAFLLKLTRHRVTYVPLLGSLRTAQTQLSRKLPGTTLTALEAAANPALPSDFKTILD

Chain of DNA polymerase I, thermostable (Thermus aquaticus) (P19821 whole entry): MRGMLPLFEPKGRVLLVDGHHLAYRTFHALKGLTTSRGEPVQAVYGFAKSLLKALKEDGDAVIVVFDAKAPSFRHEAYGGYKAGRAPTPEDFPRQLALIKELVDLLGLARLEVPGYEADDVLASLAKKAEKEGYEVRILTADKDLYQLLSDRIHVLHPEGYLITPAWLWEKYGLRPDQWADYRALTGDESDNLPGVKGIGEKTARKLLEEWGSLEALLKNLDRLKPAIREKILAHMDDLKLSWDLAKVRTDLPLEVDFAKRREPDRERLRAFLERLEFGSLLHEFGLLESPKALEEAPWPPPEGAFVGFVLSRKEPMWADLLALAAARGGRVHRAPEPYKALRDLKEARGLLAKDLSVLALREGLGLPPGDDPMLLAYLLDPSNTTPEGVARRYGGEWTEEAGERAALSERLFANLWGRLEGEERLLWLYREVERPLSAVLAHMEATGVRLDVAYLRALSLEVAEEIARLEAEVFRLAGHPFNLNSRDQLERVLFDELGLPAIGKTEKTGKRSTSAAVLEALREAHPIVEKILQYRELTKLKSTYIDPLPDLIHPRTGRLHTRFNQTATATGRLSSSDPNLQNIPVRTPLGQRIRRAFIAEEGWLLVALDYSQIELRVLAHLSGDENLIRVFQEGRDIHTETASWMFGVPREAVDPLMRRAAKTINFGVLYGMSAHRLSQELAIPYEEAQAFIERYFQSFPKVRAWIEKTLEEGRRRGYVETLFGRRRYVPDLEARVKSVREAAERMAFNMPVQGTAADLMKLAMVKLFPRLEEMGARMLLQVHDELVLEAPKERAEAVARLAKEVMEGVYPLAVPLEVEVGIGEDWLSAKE

`CC1CCCN(CCC(=O)Nc2ccc3cc4ccc(NC(=O)CCN5CCCC(C)C5)cc4nc3c2)C1` (configuration not stated) was tested, and the inhibition [1] was “inactive”, the inhibition [2] was “inactive” and the inhibition [3] was “inactive”. It also gave an IC50 (A2780) of 2100 nM, an IC50 (CH1) of 2200 nM and an IC50 (SK-OV-3) of 2850 nM. For the same molecule, the IC50 [4] was 4400 nM.
With `O=C(CCN1CCOCC1)Nc1ccc2cc3ccc(NC(=O)CCN4CCOCC4)cc3nc2c1` the inhibition [1] was “inactive”, the inhibition [2] was “inactive” and the inhibition [3] was “inactive”. The IC50 (A2780) was 3100 nM, the IC50 (CH1) was 15000 nM and the IC50 (SK-OV-3) was 13000 nM. The IC50 [4] was > 50000 nM.
`O=C(CCN1CCCCC1CCO)Nc1ccc2cc3ccc(NC(=O)CCN4CCCCC4CCO)cc3nc2c1` (configuration not stated) was tested, and the inhibition [1] was “inactive”, the inhibition [2] was “inactive” and the inhibition [3] was “inactive”. The IC50 (A2780) was 3200 nM, the IC50 (CH1) was 11000 nM and the IC50 (SK-OV-3) was 10500 nM. It also gave an IC50 [4] of 4100 nM.
In the case of `O=C(CCN1CCCCCC1)Nc1ccc2cc3ccc(NC(=O)CCN4CCCCCC4)cc3nc2c1`, the inhibition [1] is reported as “inactive”, the inhibition [2] is reported as “inactive” and the inhibition [3] is reported as “inactive”. For the same molecule, the IC50 (A2780) was 1100 nM, the IC50 (CH1) was 1850 nM and the IC50 (SK-OV-3) was 2500 nM. The IC50 [4] was 3100 nM.
For `O=C(CCN1CCCC1)Nc1ccc2cc3ccc(NC(=O)CCN4CCCC4)cc3nc2c1`, the inhibition [1] was “inactive”, the inhibition [2] was “inactive” and the inhibition [3] was “inactive”. It also gave an IC50 (A2780) of 2650 nM, an IC50 (CH1) of 8200 nM and an IC50 (SK-OV-3) of 2600 nM. For the same molecule, the IC50 [4] was 5200 nM.
For `CCN(CC)CCC(=O)Nc1ccc2cc3ccc(NC(=O)CCN(CC)CC)cc3nc2c1`, the inhibition [1] was “inactive”, the inhibition [2] was “inactive” and the inhibition [3] was “inactive”. It also gave an IC50 (A2780) of 570 nM, an IC50 (CH1) of 2450 nM and an IC50 (SK-OV-3) of 2250 nM. For the same molecule, the IC50 [4] was 5800 nM.
`O=C(CCN1CCC(O)CC1)Nc1ccc2cc3ccc(NC(=O)CCN4CCC(O)CC4)cc3nc2c1` was tested, and the inhibition [1] was “inactive”, the inhibition [2] was “inactive” and the inhibition [3] was “inactive”. The IC50 (A2780) was 6200 nM, the IC50 (CH1) was 15000 nM and the IC50 (SK-OV-3) was 13000 nM. The IC50 [4] was 8000 nM.
For `O=C(CCN1CCCCC1)Nc1ccc2cc3ccc(NC(=O)CCN4CCCCC4)cc3nc2c1`, the inhibition [1] was “inactive”, the inhibition [2] was “inactive” and the inhibition [3] was “inactive”. For the same molecule, the IC50 (A2780) was 1700 nM, the IC50 (CH1) was 2250 nM and the IC50 (SK-OV-3) was 540 nM. The IC50 [4] was 2800 nM.
With `CCC1CCCCN1CCC(=O)Nc1ccc2cc3ccc(NC(=O)CCN4CCCCC4CC)cc3nc2c1` (configuration not stated) the inhibition [1] was “inactive”, the inhibition [2] was “inactive” and the inhibition [3] was “inactive”. It also gave an IC50 (A2780) of 2200 nM, an IC50 (CH1) of 2200 nM and an IC50 (SK-OV-3) of 3900 nM. The IC50 [4] was 2700 nM.
In the case of `CC1CCCCN1CCC(=O)Nc1ccc2cc3ccc(NC(=O)CCN4CCCCC4C)cc3nc2c1` (configuration not stated), the inhibition [1] is reported as “inactive”, the inhibition [2] is reported as “inactive” and the inhibition [3] is reported as “inactive”. The IC50 (A2780) was 1750 nM, the IC50 (CH1) was 2300 nM and the IC50 (SK-OV-3) was 3400 nM. It also gave an IC50 [4] of 2600 nM.
For `CC1CCN(CCC(=O)Nc2ccc3cc4ccc(NC(=O)CCN5CCC(C)CC5)cc4nc3c2)CC1`, the inhibition [1] was “inactive”, the inhibition [2] was “inactive” and the inhibition [3] was “inactive”. For the same molecule, the IC50 (A2780) was 2150 nM, the IC50 (CH1) was 2050 nM and the IC50 (SK-OV-3) was 2400 nM. The IC50 [4] was 1350 nM.
With `CN(C)CCC(=O)Nc1ccc2cc3ccc(NC(=O)CCN(C)C)cc3nc2c1` the inhibition [1] was “inactive”, the inhibition [2] was “inactive” and the inhibition [3] was “inactive”. It also gave an IC50 (A2780) of 750 nM, an IC50 (CH1) of 9800 nM and an IC50 (SK-OV-3) of 2500 nM. The IC50 [4] was 8200 nM.
`O=C(CCN1CCC(Cc2ccccc2)CC1)Nc1ccc2cc3ccc(NC(=O)CCN4CCC(Cc5ccccc5)CC4)cc3nc2c1` was tested, and the inhibition [1] was “inactive”, the inhibition [2] was “inactive” and the inhibition [3] was “inactive”. The IC50 (A2780) was 310 nM, the IC50 (CH1) was 110 nM and the IC50 (SK-OV-3) was 880 nM. The IC50 [4] was > 50000 nM.
In the case of `O=C(CCN1CCCCC1CO)Nc1ccc2cc3ccc(NC(=O)CCN4CCCCC4CO)cc3nc2c1` (configuration not stated), the inhibition [1] is reported as “inactive”, the inhibition [2] is reported as “inactive” and the inhibition [3] is reported as “inactive”. The IC50 (A2780) was 2300 nM, the IC50 (CH1) was 10500 nM and the IC50 (SK-OV-3) was 7000 nM. For the same molecule, the IC50 [4] was 5400 nM.
In the case of `O=C(CCN1CCCCCCC1)Nc1ccc2cc3ccc(NC(=O)CCN4CCCCCCC4)cc3nc2c1`, the inhibition [1] is reported as “inactive”, the inhibition [2] is reported as “inactive” and the inhibition [3] is reported as “inactive”. It also gave an IC50 (A2780) of 1300 nM, an IC50 (CH1) of 2200 nM and an IC50 (SK-OV-3) of 2300 nM. The IC50 [4] was > 50000 nM.
In the case of `CC1(C)CC2CC(C)(CN2CCC(=O)Nc2ccc3cc4ccc(NC(=O)CCN5CC6(C)CC5CC(C)(C)C6)cc4nc3c2)C1`, the inhibition [1] is reported as “inactive”, the inhibition [2] is reported as “inactive” and the inhibition [3] is reported as “inactive”. The IC50 (A2780) was 500 nM, the IC50 (CH1) was 540 nM and the IC50 (SK-OV-3) was 2200 nM. For the same molecule, the IC50 [4] was > 50000 nM.
